# Measured values as given in patent US20240270762A1, “PENICILLIN-BINDING PROTEIN INHIBITORS” (priority 2021, published 2024).
# Like-named read-outs stand apart in the source and are kept apart here.
# Key:
# [1] = biological target: T1, PBP1a from Acinetobacter baumannii (ATCC 19606) (Acinetobacter baumannii, UniProt A0ABX6CK30); assay: Bocillin-FL fluorescence polarization competition binding, A. baumannii PBP1a; settings: fluorescence polarization competition binding assay using Bocillin-FL; read-out: A. baumannii PBP1a Potency
# T1 sequence (A0ABX6CK30 1-851): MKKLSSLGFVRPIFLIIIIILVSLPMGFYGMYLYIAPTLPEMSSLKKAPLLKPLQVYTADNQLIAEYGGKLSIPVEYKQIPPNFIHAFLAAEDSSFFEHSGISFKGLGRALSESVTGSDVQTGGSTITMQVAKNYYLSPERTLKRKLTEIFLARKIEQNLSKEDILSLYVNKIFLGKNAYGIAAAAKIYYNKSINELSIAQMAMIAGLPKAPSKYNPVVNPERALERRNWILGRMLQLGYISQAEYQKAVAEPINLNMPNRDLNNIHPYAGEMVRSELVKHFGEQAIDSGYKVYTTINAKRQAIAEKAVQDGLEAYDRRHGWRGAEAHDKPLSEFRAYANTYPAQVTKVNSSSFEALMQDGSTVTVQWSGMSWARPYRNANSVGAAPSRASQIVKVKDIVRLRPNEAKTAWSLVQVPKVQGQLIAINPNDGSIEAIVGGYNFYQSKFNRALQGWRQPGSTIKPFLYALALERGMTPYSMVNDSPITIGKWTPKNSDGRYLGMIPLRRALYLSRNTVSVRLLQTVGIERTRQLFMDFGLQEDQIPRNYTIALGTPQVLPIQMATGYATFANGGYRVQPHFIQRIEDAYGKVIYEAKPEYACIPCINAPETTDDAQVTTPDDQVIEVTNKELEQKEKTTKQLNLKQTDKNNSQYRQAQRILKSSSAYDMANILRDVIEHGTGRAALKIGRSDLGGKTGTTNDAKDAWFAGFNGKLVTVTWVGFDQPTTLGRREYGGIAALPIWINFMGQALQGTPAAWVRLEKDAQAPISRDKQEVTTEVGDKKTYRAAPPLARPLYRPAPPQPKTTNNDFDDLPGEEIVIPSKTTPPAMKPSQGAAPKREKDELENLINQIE
# How it was run: (§1)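 Purified PBP was preincubated with inhibitor (E. coli PBP3 1.5 μM, 30 min; P. aeruginosa PBP3 0.75 μM, A. baumannii PBP3 0.2 μM and PBP1a 1 μM, 15 min), then Bocillin-FL (0.1 μM; 0.05 μM for PBP1a) added and FP read up to 60 min. EC50 = 50% loss of bound probe.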
# [2] = biological target: T2, PBP3 from Acinetobacter baumannii (ATCC 19606) (Acinetobacter baumannii, UniProt A0ABX6CK25); assay: Bocillin-FL fluorescence polarization competition binding, A. baumannii PBP3; settings: fluorescence polarization competition binding assay using Bocillin-FL; read-out: A. baumannii PBP3 Potency
# T2 sequence (A0ABX6CK25 64-610): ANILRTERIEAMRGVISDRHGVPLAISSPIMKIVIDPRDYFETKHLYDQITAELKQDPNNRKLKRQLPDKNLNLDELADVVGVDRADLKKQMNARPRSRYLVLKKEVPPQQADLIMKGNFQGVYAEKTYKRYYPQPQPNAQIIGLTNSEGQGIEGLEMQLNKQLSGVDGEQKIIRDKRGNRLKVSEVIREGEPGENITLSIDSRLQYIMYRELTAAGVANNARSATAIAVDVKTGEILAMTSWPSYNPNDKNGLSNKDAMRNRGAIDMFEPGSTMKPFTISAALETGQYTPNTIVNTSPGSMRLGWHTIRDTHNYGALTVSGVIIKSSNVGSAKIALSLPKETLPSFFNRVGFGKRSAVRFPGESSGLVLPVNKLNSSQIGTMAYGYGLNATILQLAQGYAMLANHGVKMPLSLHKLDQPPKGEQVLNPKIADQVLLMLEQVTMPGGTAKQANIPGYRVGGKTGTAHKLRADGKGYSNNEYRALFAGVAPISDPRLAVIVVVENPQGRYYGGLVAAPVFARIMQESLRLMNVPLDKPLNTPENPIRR
# How it was run: as §1
# N. gonorrhoeae WHO L = assay: Liquid broth MIC in Fastidious broth; settings: Neisseria gonorrhoeae
# [3] = read-out: Minimum Inhibitory Concentration (MIC), N. gonorrhoeae WHO L
# [4] = read-out: Minimum Inhibitory Concentration, WHO L
Structure (SMILES),IC50 [1] [µM],IC50 [2] [µM],MIC (N. gonorrhoeae WHO L; [3]) [µg/mL],MIC (N. gonorrhoeae WHO L; [4]) [µg/mL]
"O=C(NCCCN1CCN(C(=O)NC(C(=O)N[C@H]2Cc3ccc(F)c(C(=O)O)c3OB2O)c2cc(F)c(O)c(O)c2Cl)C(=O)C1=O)Nc1ccncc1 (stereo partly drawn) [Example 228, (3R)-3-(2-(2-chloro-5-fluoro-3,4-dihydroxyphenyl)-2-(2,3-dioxo-4-(3-(3-(pyridin-4-yl)ureido)propyl)piperazine-1-carboxamido)acetamido)-7-fluoro-2-hydroxy-3,4-dihydro-2H-benzo[e][1,2]oxaborinine-8-carboxylic acid]",> 250,< 10,> 64,–
"O=C(NCCCN1CCN(C(=O)NC(C(=O)N[C@H]2Cc3ccc(F)c(C(=O)O)c3OB2O)c2cc(F)c(O)c(O)c2Cl)C(=O)C1=O)c1nccs1 (stereo partly drawn) [Example 211, (3R)-3-(2-(2-chloro-5-fluoro-3,4-dihydroxyphenyl)-2-(2,3-dioxo-4-(3-(thiazole-2-carboxamido)propyl)piperazine-1-carboxamido)acetamido)-7-fluoro-2-hydroxy-3,4-dihydro-2H-benzo[e][1,2]oxaborinine-8-carboxylic acid]",> 250,< 10,> 64,–
"O=C(NCCCN1CCN(C(=O)N[C@@H](C(=O)N[C@H]2Cc3ccc(F)c(C(=O)O)c3OB2O)c2cc(F)c(O)c(O)c2Cl)C(=O)C1=O)c1cccnc1 [Example 210, (R)-3-((R)-2-(2-chloro-5-fluoro-3,4-dihydroxyphenyl)-2-(4-(3-(nicotinamido)propyl)-2,3-dioxopiperazine-1-carboxamido)acetamido)-7-fluoro-2-hydroxy-3,4-dihydro-2H-benzo[e][1,2]oxaborinine-8-carboxylic acid]",> 250,< 10,> 64,–
"O=C(NCCCS(=O)(=O)N1CCN(C(=O)NC(C(=O)N[C@H]2Cc3ccc(F)c(C(=O)O)c3OB2O)c2cc(F)c(O)c(O)c2Cl)C1=O)c1nccs1 (stereo partly drawn) [Example 274, (3R)-3-(2-(2-chloro-5-fluoro-3,4-dihydroxyphenyl)-2-(2-oxo-3-((3-(thiazole-2-carboxamido)propyl)sulfonyl)imidazolidine-1-carboxamido)acetamido)-7-fluoro-2-hydroxy-3,4-dihydro-2H-benzo[e][1,2]oxaborinine-8-carboxylic acid]",> 250,< 10,–,> 64
"O=C(NCCS(=O)(=O)N1CCN(C(=O)NC(C(=O)N[C@H]2Cc3ccc(F)c(C(=O)O)c3OB2O)c2cc(F)c(O)c(O)c2Cl)C1=O)c1cccc(O)c1 (stereo partly drawn) [Example 261, (3R)-3-(2-(2-chloro-5-fluoro-3,4-dihydroxyphenyl)-2-(3-((2-(3-hydroxybenzamido)ethyl)sulfonyl)-2-oxoimidazolidine-1-carboxamido)acetamido)-7-fluoro-2-hydroxy-3,4-dihydro-2H-benzo[e][1,2]oxaborinine-8-carboxylic acid]",> 250,< 10,–,> 64
"O=C(O)c1c(F)ccc2c1OB(O)[C@@H](NC(=O)C(NC(=O)N1CCN(CCNC(=O)[C@@H]3CCCN3)C1=O)c1cc(F)c(O)c(O)c1Cl)C2 (stereo partly drawn) [Example 248, (3R)-3-(2-(2-chloro-5-fluoro-3,4-dihydroxyphenyl)-2-(2-oxo-3-(2-((S)-pyrrolidine-2-carboxamido)ethyl)imidazolidine-1-carboxamido)acetamido)-7-fluoro-2-hydroxy-3,4-dihydro-2H-benzo[e][1,2]oxaborinine-8-carboxylic acid]",> 250,< 10,–,> 64
"O=C(NCCN1CCN(C(=O)NC(C(=O)N[C@H]2Cc3ccc(F)c(C(=O)O)c3OB2O)c2cc(F)c(O)c(O)c2Cl)C1=O)Nc1cccnc1 (stereo partly drawn) [Example 251, (3R)-3-(2-(2-chloro-5-fluoro-3,4-dihydroxyphenyl)-2-(2-oxo-3-(2-(3-(pyridin-3-yl)ureido)ethyl)imidazolidine-1-carboxamido)acetamido)-7-fluoro-2-hydroxy-3,4-dihydro-2H-benzo[e][1,2]oxaborinine-8-carboxylic acid]",> 250,< 10,–,> 64
"O=C(NCCN1CCN(C(=O)NC(C(=O)N[C@H]2Cc3ccc(F)c(C(=O)O)c3OB2O)c2cc(F)c(O)c(O)c2Cl)C1=O)c1ccccc1 (stereo partly drawn) [Example 242, (3R)-3-(2-(3-(2-benzamidoethyl)-2-oxoimidazolidine-1-carboxamido)-2-(2-chloro-5-fluoro-3,4-dihydroxyphenyl)acetamido)-7-fluoro-2-hydroxy-3,4-dihydro-2H-benzo[e][1,2]oxaborinine-8-carboxylic acid]",> 250,< 10,> 64,–
"O=C(NCCS(=O)(=O)N1CCN(C(=O)NC(C(=O)N[C@H]2Cc3ccc(F)c(C(=O)O)c3OB2O)c2cc(F)c(O)c(O)c2Cl)C1=O)c1ccccc1 (stereo partly drawn) [Example 260, (3R)-3-(2-(3-((2-benzamidoethyl)sulfonyl)-2-oxoimidazolidine-1-carboxamido)-2-(2-chloro-5-fluoro-3,4-dihydroxyphenyl)acetamido)-7-fluoro-2-hydroxy-3,4-dihydro-2H-benzo[e][1,2]oxaborinine-8-carboxylic acid]",> 250,< 10,–,> 64
"O=C(NCCN1CCN(C(=O)NC(C(=O)N[C@H]2Cc3ccc(F)c(C(=O)O)c3OB2O)c2cc(F)c(O)c(O)c2Cl)C(=O)C1=O)Nc1ccc(O)cc1 (stereo partly drawn) [Example 219, (3R)-3-(2-(2-chloro-5-fluoro-3,4-dihydroxyphenyl)-2-(4-(2-(3-(4-hydroxyphenyl)ureido)ethyl)-2,3-dioxopiperazine-1-carboxamido)acetamido)-7-fluoro-2-hydroxy-3,4-dihydro-2H-benzo[e][1,2]oxaborinine-8-carboxylic acid]",> 250,< 10,> 64,–
"O=C(CN1CCN(C(=O)NC(C(=O)N[C@H]2Cc3ccc(F)c(C(=O)O)c3OB2O)c2cc(F)c(O)c(O)c2Cl)C(=O)C1=O)NCc1cccnc1 (stereo partly drawn) [Example 240, (3R)-3-(2-(2-chloro-5-fluoro-3,4-dihydroxyphenyl)-2-(2,3-dioxo-4-(2-oxo-2-((pyridin-3-ylmethyl)amino)ethyl)piperazine-1-carboxamido)acetamido)-7-fluoro-2-hydroxy-3,4-dihydro-2H-benzo[e][1,2]oxaborinine-8-carboxylic acid]",> 250,< 10,> 64,–
"O=C(NCCCN1CCN(C(=O)NC(C(=O)N[C@H]2Cc3ccc(F)c(C(=O)O)c3OB2O)c2cc(F)c(O)c(O)c2Cl)C(=O)C1=O)c1ccncc1 (stereo partly drawn) [Example 205, (3R)-3-(2-(2-chloro-5-fluoro-3,4-dihydroxyphenyl)-2-(4-(3-(isonicotinamido)propyl)-2,3-dioxopiperazine-1-carboxamido)acetamido)-7-fluoro-2-hydroxy-3,4-dihydro-2H-benzo[e][1,2]oxaborinine-8-carboxylic acid]",> 250,< 10,> 64,–
"O=C(NCCN1CCN(C(=O)NC(C(=O)N[C@H]2Cc3ccc(F)c(C(=O)O)c3OB2O)c2cc(F)c(O)c(O)c2Cl)C1=O)c1cccc(O)c1 (stereo partly drawn) [Example 244, (3R)-3-(2-(2-chloro-5-fluoro-3,4-dihydroxyphenyl)-2-(3-(2-(3-hydroxybenzamido)ethyl)-2-oxoimidazolidine-1-carboxamido)acetamido)-7-fluoro-2-hydroxy-3,4-dihydro-2H-benzo[e][1,2]oxaborinine-8-carboxylic acid]",> 250,< 10,> 64,–
